# Article PMC9457815 (Molecules, 2022)
# Like-named read-outs stand apart in the source and are kept apart here.
# Tests used:
# AChE = biological target: T1, AChE (Electrophorus electricus, UniProt O42275); experiment: biochemical; format: biochemical, electric eel; details: substrate ATCh; nid = no inhibition detected at 1 mM
# T1 construct: purchased Abcam ab138871
# Method: (§1) Pharmacological properties specific to AD were tested first on AChEs (electric eel) according to the kit (ab138871, Abcam) that provides a colorimetric measure of enzyme activity and inhibition. Briefly, the reaction was performed in a final volume of 100 μL in 96-well microplates. […] For this, DMSO-dissolved test compounds were added to a final concentration of 1 mM (1% DMSO) in duplicates. Next, a 5 μL reaction mixture containing equal amounts of acetylthiocholine (20X) and DTNB (20X) was added to each well. Ultimately, the enzyme solution was added to a final concentration of 0.25 U/mL and the absorbance was measured at 412 nm in kinetic mode for 10 min using a microplate reader (Synergy H1, Biotek, Dorval, QC, Canada). The same procedure was utilized for the BuChE (equine, Sigma-Aldrich) activity test, except that the enzyme concentration was 2 U/mL per reaction. DTNB (Bis(3-carboxy-4-nitrophenyl) disulfide, Ellman’s Reagent), acetylthiocholine iodide, and butyrylthiocholine iodide were purchased from Sigma-Aldrich (Oakville, ON, Canada). […] Experiments were performed at least twice. Inhibition was calculated as follows:I = 100 × (1 − Δi/Δe) where Δi is the difference in the absorbance between two time points in the presence of the inhibitor, and Δe is the difference in the absorbance using two time points in presence of DMSO or an appropriate solvent.
# HIV-1GFP = experiment: microbe, parasite or virus in culture; format: cell-based, human immunodeficiency virus (HIV)-1; details: for EC50: Human immunodeficiency virus 1, THP-1, 72 h, read-out: EC50 HIV-1; for inhibition at 200 µM: Human immunodeficiency virus 1, THP-1, read-out: inhibition of HIV-1 infection
# Method: (§2) The plasmid used to obtain the DENVGFP vector (pFK-DVs-G2A) was provided by Ralf Bartenschlager (Heidelberg University, Heidelberg, Germany) and Laurent Chatel-Chaix (Institut National de la Recherche Scientifique, Laval, QC, Canada). The 2 plasmids used to obtain the HIV-1GFP vector were PMD2.G and pNL4-3-GFPΔEnvΔNef. For DENVGFP, viral titer was measured using a plaque assay in Vero cells, as described in [53]. For HIV-1GFP, the viral titer was obtained by measuring the infectivity of serially diluted vectors in CRFK cells, as described in [54].
# (§3) Briefly, 7.5 × 10^3 Huh7 cells/well or 2 × 10^4 THP-1 cells/well were plated in 96-well plates at 37 °C for 24 h. […] Each dilution was added to the cell plates to obtain final concentrations of 1.56 µM to 200 µM for alkaloids and matched concentrations of DMSO, and 0.05 µM to 6.4 µM for lycorine or 0.078 µM to 10 µM for raltegravir. Lycorine and raltegravir were used as DENV and HIV-1 inhibitor controls, respectively. DENVGFP and HIV-1GFP were then added at multiplicities of infection (MOIs) of 0.025 and 0.1, respectively. Plates were placed in an incubator at 37 °C and 5% CO2 for 72 h. Afterward, the cells were fixed in 3.7% formaldehyde and the percentage of infection was measured using flow cytometry with an FC500 MPL cytometer (Beckman Coulter, Inc., Brea, CA, USA). Data analysis was performed using Flowjo software (BD, FlowJo LLC, Ashland, OR, USA). All experiments were performed at least twice. EC50 values were calculated using QuestGraph IC50 calculator software (MLA Quest Graph™ IC50 Calculator. AAT Bioquest, Inc. https://www.aatbio.com/tools/ic50-calculator (accessed on 1 July 2022)).
# Huh7 cells = experiment: Cytotoxicity assay (Cell-Titer GLO, cellular ATP levels) on Huh7 cells; format: cell-based, human; details: for cell death, Huh7 cells: 200 µM; for cytotoxicity to Huh7 cells: tested concentrations (lycorine: below 50 µM)
# Method: (§4) Briefly, 7.5 × 10^3 Huh7 cells/well or 2 × 10^4 THP-1 cells/well were plated in black 96-well plates and incubated at 37 °C for 24 h. […] Each dilution was added to the cell plates to obtain final concentrations of 6.25 µM to 200 µM for alkaloids and DMSO, and 0.39 µM to 50 µM for lycorine. […] The plates were then incubated at 37 °C and 5% CO2 for 72 h. Cell-Titer GLO reagent was added to the plates previously equilibrated to room temperature. The plates were then mixed on an orbital shaker for 2 min and incubated for 10 min at room temperature. The luminescence signal was measured with a microplate spectrophotometer (Synergy H1, Biotek, Dorval, QC, Canada). Viability percentages were obtained by calculating the ratio of the signal corresponding to each alkaloid concentration to the signal of the equimolar DMSO control. All experiments were performed at least twice. Median cytotoxic concentrations (CC50) were calculated using QuestGraph IC50 calculator software (MLA Quest Graph™ IC50 Calculator, AAT Bioquest, Inc., Sunnyvale, CA, USA).
# [1] = as above; format: cell-based, human; details: human; Huh7 cells, 72 h, ATP levels
# Method: as §4
# DENVGFP = experiment: Antiviral assay, propagative DENVGFP vector in Huh7 cells, flow cytometry; format: cell-based, dengue virus (serotype 2); details: Dengue virus, Huh-7, 72 h, read-out: EC50 DENV
# Method: as §2, §3
# THP-1 cells = experiment: Cytotoxicity assay (Cell-Titer GLO, cellular ATP levels) on THP-1 cells; format: cell-based, human
# Method: as §4
# [2] = as above; format: cell-based, human; details: human; THP-1 cells, 72 h, ATP levels
# Method: as §4
# POP = biological target: T2, POP (Homo sapiens, UniProt P48147); experiment: Prolyloligopeptidase (POP) inhibition assay, fluorogenic kit; format: biochemical; details: substrate DPP (Ala-Pro-AMC dipeptide), nid = no inhibition detected at 1 mM
# T2 construct: purchased BPS Bioscience Inc
# T2 sequence (P48147 1-710): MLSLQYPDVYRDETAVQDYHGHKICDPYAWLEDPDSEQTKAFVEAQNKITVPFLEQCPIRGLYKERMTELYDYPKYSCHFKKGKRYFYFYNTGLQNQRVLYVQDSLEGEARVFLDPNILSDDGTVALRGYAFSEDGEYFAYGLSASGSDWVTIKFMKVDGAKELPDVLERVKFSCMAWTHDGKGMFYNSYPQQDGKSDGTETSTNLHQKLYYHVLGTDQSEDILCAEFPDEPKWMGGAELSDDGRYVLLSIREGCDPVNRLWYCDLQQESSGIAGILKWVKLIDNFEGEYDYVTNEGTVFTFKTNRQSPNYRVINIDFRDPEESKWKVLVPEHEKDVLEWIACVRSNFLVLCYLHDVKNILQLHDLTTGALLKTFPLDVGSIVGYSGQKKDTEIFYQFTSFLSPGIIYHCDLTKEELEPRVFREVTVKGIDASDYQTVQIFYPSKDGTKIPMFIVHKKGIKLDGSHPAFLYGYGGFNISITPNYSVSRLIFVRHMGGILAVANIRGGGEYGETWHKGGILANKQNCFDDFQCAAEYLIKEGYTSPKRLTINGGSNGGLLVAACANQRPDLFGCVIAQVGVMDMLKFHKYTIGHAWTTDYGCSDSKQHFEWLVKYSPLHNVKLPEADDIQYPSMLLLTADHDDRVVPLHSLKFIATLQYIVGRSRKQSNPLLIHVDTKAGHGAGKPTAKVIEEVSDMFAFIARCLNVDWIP
# Method: POP enzyme activity was measured using the Fluorogenic POP Assay Kit (BPS Bioscience Inc., San Diego, CA, USA). The reaction was carried out in a final volume of 50 μL in a low-binding NUNC microtiter plate. All compounds were tested at a final concentration of 250 μM in duplicate. A DPP substrate was added to a final concentration of 2.5 μM and the POP enzyme solution was subsequently added to a final concentration of 1 ng/μL. Optical densities at 440 nm were recorded using a microplate reader (Synergy H1, Biotek, QC, Canada).
# BuChE = biological target: T3, BuChE (Equus caballus, UniProt P81908); experiment: biochemical; design: species or system equine; details: for IC50 BuChE / IC50: nid = no inhibition detected at 1 mM
# T3 construct: purchased Sigma-Aldrich
# Method: as §1
# [3] = 100 µM, killing a majority of the cells
# [4] = 200 µM, killing a majority of the cells
# [5] = tested concentrations (lycorine: below 50 µM)
# T1 sequence (O42275 24-633): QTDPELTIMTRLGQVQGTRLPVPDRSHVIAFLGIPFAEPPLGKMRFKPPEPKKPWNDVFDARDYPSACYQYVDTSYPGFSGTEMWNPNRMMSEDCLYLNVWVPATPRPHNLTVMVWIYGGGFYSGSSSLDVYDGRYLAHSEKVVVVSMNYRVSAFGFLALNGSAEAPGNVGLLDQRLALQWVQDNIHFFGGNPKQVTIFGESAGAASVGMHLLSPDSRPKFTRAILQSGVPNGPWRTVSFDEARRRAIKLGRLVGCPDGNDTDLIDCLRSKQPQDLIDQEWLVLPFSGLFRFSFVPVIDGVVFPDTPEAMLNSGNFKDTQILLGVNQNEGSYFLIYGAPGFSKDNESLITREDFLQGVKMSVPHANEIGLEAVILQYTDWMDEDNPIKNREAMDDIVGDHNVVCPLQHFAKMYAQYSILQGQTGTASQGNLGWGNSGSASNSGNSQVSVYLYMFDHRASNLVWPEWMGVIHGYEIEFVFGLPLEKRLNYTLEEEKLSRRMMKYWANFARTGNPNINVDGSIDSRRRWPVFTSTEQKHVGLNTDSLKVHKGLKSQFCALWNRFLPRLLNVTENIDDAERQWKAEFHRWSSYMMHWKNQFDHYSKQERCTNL
# T3 sequence (P81908 whole entry): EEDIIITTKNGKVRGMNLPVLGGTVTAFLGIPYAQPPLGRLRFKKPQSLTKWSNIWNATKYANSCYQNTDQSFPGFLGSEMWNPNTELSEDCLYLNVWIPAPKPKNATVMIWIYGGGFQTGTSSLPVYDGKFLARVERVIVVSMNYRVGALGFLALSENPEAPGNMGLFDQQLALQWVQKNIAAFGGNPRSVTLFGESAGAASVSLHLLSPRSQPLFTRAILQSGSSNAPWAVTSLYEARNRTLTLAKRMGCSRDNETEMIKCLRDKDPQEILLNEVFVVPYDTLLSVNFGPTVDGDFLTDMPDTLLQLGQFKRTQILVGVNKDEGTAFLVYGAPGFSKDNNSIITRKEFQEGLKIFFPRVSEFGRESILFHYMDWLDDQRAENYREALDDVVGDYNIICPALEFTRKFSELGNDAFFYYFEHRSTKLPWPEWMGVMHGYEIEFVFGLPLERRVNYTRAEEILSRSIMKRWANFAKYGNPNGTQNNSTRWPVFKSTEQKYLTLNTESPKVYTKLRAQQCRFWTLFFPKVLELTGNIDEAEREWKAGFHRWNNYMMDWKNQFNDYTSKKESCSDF
smiles,measurement,setting,value
Oc1ccc(CC/N=C/c2ccc(O)c(O)c2)cc1 [Norcraugsodine],IC50 AChE,AChE,nid
same,EC50,HIV-1GFP,55.5 µM
same,inhibition at 200 µM,HIV-1GFP,94 to 99%
same,"cell death, Huh7 cells",Huh7 cells,50%
same,CC50 at 72 h,[1],122 µM
same,EC50,DENVGFP,37.7 µM
same,cytotoxicity to THP-1 cells,THP-1 cells; [3],highly cytotoxic
same,CC50 at 72 h,[2],27 µM
same,IC50,POP; read-out: IC50 POP,567 µM
same,IC50 BuChE,BuChE; substrate ATCh,nid
same,IC50 BuChE,BuChE; substrate BuTCh,nid
"COc1ccc(CNCCc2ccc(O)cc2)cc1OC [3′,4′-O-dimethylnorbelladine]",IC50,AChE,320 µM
same,EC50,HIV-1GFP,98.3 µM
same,"cell death, Huh7 cells",Huh7 cells,50%
same,CC50 at 72 h,[1],131 µM
same,EC50,DENVGFP,27.5 µM
same,CC50 at 72 h,[2],> 200 µM
same,loss of BuChE inhibition compared with norbelladine,BuChE,3 fold
same,IC50,BuChE; substrate ATCh,87.8 µM
same,IC50,BuChE; substrate BuTCh,87.9 µM
"CCN(C)C(=O)Oc1cccc([C@H](C)N(C)C)c1 [rivastigamine, Rivastigmine, reference compound]",inhibition at 2000 µM,BuChE; read-out: BuChE inhibition (positive control),100%
Oc1ccc(CCNCc2ccc(O)c(O)c2)cc1 [Norbelladine],IC50 AChE,AChE,nid
same,EC50,HIV-1GFP,50.5 µM
same,inhibition at 200 µM,HIV-1GFP,94 to 99%
same,"cell death, Huh7 cells",Huh7 cells,50%
same,CC50 at 72 h,[1],72.6 µM
same,EC50,DENVGFP,50.4 µM
same,cytotoxicity to THP-1 cells,THP-1 cells; [4],highly cytotoxic
same,CC50 at 72 h,[2],82.2 µM
same,IC50,BuChE; substrate ATCh,33.3 µM
same,IC50,BuChE; substrate BuTCh,26.1 µM
"O[C@H]1[C@H]2c3cc4c(cc3CN3CCC(=C[C@@H]1O)[C@H]23)OCO4 [Lycorine, reference compound]",cytotoxicity to Huh7 cells,Huh7 cells,cytotoxic
same,CC50 at 72 h,[1],17.4 µM
same,EC50,DENVGFP,0.09 µM
same,cytotoxicity to THP-1 cells,THP-1 cells; [5],cytotoxic
same,CC50 at 72 h,[2],10.7 µM
"COc1ccc(/C=N/CCc2ccc(O)cc2)cc1OC [3′,4′-O-dimethylnorcraugsodine]",IC50 AChE,AChE,nid
same,EC50,HIV-1GFP,> 200 µM
same,CC50 at 72 h,[1],> 200 µM
same,EC50,DENVGFP,> 200 µM
same,CC50 at 72 h,[2],> 200 µM
same,IC50 BuChE,BuChE; substrate ATCh,nid
same,IC50 BuChE,BuChE; substrate BuTCh,nid
COc1ccc(CNCCc2ccc(O)cc2)cc1O [4′-O-methylnorbelladine],IC50 AChE,AChE,nid
same,EC50,HIV-1GFP,108 µM
same,CC50 at 72 h,[1],> 200 µM
same,EC50,DENVGFP,40.5 µM
same,CC50 at 72 h,[2],> 200 µM
same,IC50,BuChE; substrate ATCh,42.9 µM
same,IC50,BuChE; substrate BuTCh,91.6 µM
COc1cc(CNCCc2ccc(O)cc2)ccc1O [3′-O-methylnorbelladine],IC50 AChE,AChE,nid
same,EC50,HIV-1GFP,135 µM
same,CC50 at 72 h,[1],> 200 µM
same,EC50,DENVGFP,44.9 µM
same,cytotoxicity to THP-1 cells,THP-1 cells; [4],highly cytotoxic
same,CC50 at 72 h,[2],99 µM
same,IC50,POP; IC50 POP,1230 µM
same,IC50,BuChE; substrate ATCh,40.2 µM
same,IC50,BuChE; substrate BuTCh,58.9 µM
COc1ccc(/C=N/CCc2ccc(O)cc2)cc1O [4′-O-methylnorcraugsodine],IC50 AChE,AChE,nid
same,EC50,HIV-1GFP,> 200 µM
same,CC50 at 72 h,[1],> 200 µM
same,EC50,DENVGFP,> 200 µM
same,CC50 at 72 h,[2],> 200 µM
same,IC50 BuChE,BuChE; substrate ATCh,nid
same,IC50 BuChE,BuChE; substrate BuTCh,nid
NCCc1ccc(O)cc1 [Tyramine],IC50 AChE,AChE,nid
same,EC50,HIV-1GFP,> 200 µM
same,cytotoxicity to Huh7 cells,Huh7 cells,not cytotoxic
same,CC50 at 72 h,[1],> 200 µM
same,EC50,DENVGFP,> 200 µM
same,cytotoxicity to THP-1 cells,THP-1 cells; [5],not cytotoxic
same,CC50 at 72 h,[2],> 200 µM
same,IC50 BuChE,BuChE; substrate ATCh,nid
same,IC50 BuChE,BuChE; substrate BuTCh,nid
"O=Cc1ccc(O)c(O)c1 [3,4-DHBA, 3,4-dihydroxybenzaldehyde]",IC50 AChE,AChE,nid
same,EC50,HIV-1GFP,51.5 µM
same,inhibition at 200 µM,HIV-1GFP,94 to 99%
same,"cell death, Huh7 cells",Huh7 cells,50%
same,CC50 at 72 h,[1],173 µM
same,EC50,DENVGFP,24.1 µM
same,cytotoxicity to THP-1 cells,THP-1 cells; [3],highly cytotoxic
same,CC50 at 72 h,[2],31.7 µM
same,IC50 BuChE,BuChE; substrate ATCh,nid
same,IC50 BuChE,BuChE; substrate BuTCh,nid
"Cc1nnc(C(=O)NC(C)(C)c2nc(C(=O)NCc3ccc(F)cc3)c(O)c(=O)n2C)o1 [Raltegravir, reference compound]",EC50,HIV-1GFP,0.098 µM
same,CC50 at 72 h,[2],> 10 µM
COc1cc(/C=N/CCc2ccc(O)cc2)ccc1O [3′-O-methylnorcraugsodine],IC50 AChE,AChE,nid
same,EC50,HIV-1GFP,107 µM
same,inhibition at 200 µM,HIV-1GFP,94 to 99%
same,cytotoxicity to Huh7 cells,Huh7 cells,weakly cytotoxic
same,CC50 at 72 h,[1],> 200 µM
same,EC50,DENVGFP,176 µM
same,CC50 at 72 h,[2],> 200 µM
same,IC50,POP; IC50 POP,1150 µM
same,IC50 BuChE,BuChE; substrate ATCh,nid
same,IC50 BuChE,BuChE; substrate BuTCh,nid
